This note sets out measurements from patent publication US20110086089A1, “USE OF P27KIP1 FOR THE PREVENTION AND TREATMENT OF HEART FAILURE” (UNIVERSITY HEALTH NETWORK, priority 2008, published 2011).

The subject of experiment [1] is WT mice. Put plainly: Reversal of established Ang II-dependent cardiac hypertrophy (16 days infusion, injections from day 8). Format: in vivo. As to conditions: daily i.p. injections 20 mg/kg initiated at day 8. The source says: FIG. 10 is the experimental treatment protocol. To examine the therapeutic effect of p27 on established cardiac hypertrophy, p27 injections were initiated at 8 days after Ang II-infusion.
To examine the effect of transduced p27 on established cardiac hypertrophy, mice were chronically infused with Ang II for 16 days and intraperitoneally injected recombinant TAT-conjugated p27ΔPi and beta-galactosidase (β-Gal) proteins starting from day 8. After 16 days of Ang II-infusion, the heart/body weight ratio were increased by 45% compared to saline-infused controls (FIG. 11B; group 7 vs. group 6). […] Transduced p27ΔPi regressed the increase in heart size by 47% as compared to β-Gal control injections (group 3 vs group 4). In Ang II-infused mice treated with p27ΔPi values of left ventricular posterior wall and interventricular septum thickness, LVEDD, LVESD, FS and EF were not significant different compared to saline-infused mice. Thus, p27 can reverse established compensated cardiac hypertrophy without exerting any deleterious effect on cardiac function.
Spontaneously beating cardiomyocytes from heart ventricles of neonatal rats were cultured and subjected to treatment with angiotensin II (Ang II). DMAT (2-dimethylamino-4,5,6,7-tetrabromo-1H-benzimidazol), DMSO, lactacystin and LLM were obtained from Calbiochem. Ang II was purchased from Sigma. Animal usage was in accordance with approved institutional animal care guidelines. Age-matched male WI C57BL/6 and p27^−/− mice were used in this study. For results shown in FIGS. 1 to 9: Ang II was chronically infused subcutaneously by osmotic pumps (model 2000, Alzet) at a dose of 1.4 μg/kg per minute for 14 days. TAT.proteins (10 mg/kg) were injected intraperitoneally once daily for 14 days. For results shown in FIGS. 10 to 12: Ang II was chronically infused subcutaneously by osmotic pumps (model 2000, Alzet) at a dose of 0.7 μg/kg per minute for 16 days. TAT.proteins (20 mg/kg) were injected intraperitoneally once daily for 8 days starting at day 8. Thoracic aortic banding (TAB) and pressure gradient measurements were performed as described^39.
After fixation in paraformaldehyde (4% in PBS, pH 7.4), a transverse midsection (3 μm thickness) was stained with Alexa Fluor® 488-conjugated wheat germ agglutinin for cross sectional measurements. Cardiomycoyte area was determined by planimetry employing ImageJ software. A total of 200 cells were counted in each group.

The test system of experiment [2] is p27 degradation in cardiomyocytes. Put plainly: Ang II-triggered p27 degradation / p27 half-life in cardiomyocytes. Type of experiment: cell-based, rat. As to conditions: for p27 degradation: proteasome inhibitors, conditions not given; for Ang II-triggered decrease in p27 protein levels / p27 destabilization: cardiomyocytes + Ang II, lactacystin 10 μM 30 min pre-treatment, DMAT 30 minutes prior, lentivirus 72 h. The protocol: FIG. 3 is a series of graphs, blots and cell stainings showing essential function of CK2-alpha-prime-mediated p27 degradation for cardiomyocyte hypertrophy. […] Cells were transduced with TAT-conjugated wt.p27 (2.5 μg/ml), phosphorylation resistant p27deltaPi, or phosphomimicking mutant p27.S83D/T187D for 1 h before Ang II addition for 4 h. Isotypic anti-CK2-alpha-prime immunocomplex kinase assays were performed employing histone H1 substrate. Input levels of transduced TAT-fusion proteins were determined prior to Ang II addition by immunoblotting of total cell extracts. Mean±s.e.m., n=3. *P<0.01 vs unstimulated cells. **P<0.01 vs Ang II. #P<0.01. endog, endogenous. (B) Pharmacological inhibition of the 26S-proteasome abrogates Ang II-triggered p27 degradation. […] Alternatively, lactacystin-treated cardiomyocytes were transduced with TAT-conjugated CK2-alpha-prime or p27deltaPi (2.5 μg/ml) for 1 h prior to Ang II addition. Anti-CK2-alpha-prime immunocomplex kinase assays were performed employing histone H1 as substrate. Western blots of total cell extracts (50 μg/lane) were probed with antibodies as indicated on the left. (C) Inhibition of CK2-alpha-prime prevents Ang II-induced degradation of p27. […] Cells were then chased with excess cold methionine in the presence of Ang II and cycloheximide (100 μg/ml) to block protein synthesis for the indicated timepoints. Alternatively, cells were incubated with DMAT for 30 minutes prior to Ang II stimulation. p27 was immunoprecipitated employing anti-p27 covalently linked to protein A-agarose. Aliquots of total cell extracts were resolved on SDS-PAGE, transferred to nitrocellulose-membranes, autoradiographed (right panel), and quantified with ImageJ software (left panel). (B, C) One typical result of two independent experiments is shown. (D) Subcellular localization of p27 and S83 phosphorylated p27 in Ang II-stimulated cardiomyocytes. Cells were transduced with lentiviruses encoding siCK2-alpha-prime or siControl for 72 h prior to Ang II treatment for the indicated timepoints. […] De novo protein synthesis was determined by in vivo labeling of cardiomyocytes with [^35S]methionine (right panel). Cell size was determined by indirect immunofluorescence microscopy employing anti-tropomyosin staining and ImageJ. Expression levels of endogenous CK2-alpha-prime and p27 were determined by immunoblotting of total cell extracts employing specific antibodies as indicated. Ectopic SR.CK2-alpha-prime and SR.p27 were detected using anti-His. […]
For metabolic labeling, cardiomyocytes were pulsed-labeled with 100 μCi/ml [^35S]methionine/cysteine (1000 Ci/mmol; EasyTag, NEN) for 2 h in methionine/cysteine-deficient medium (DME, ICN). […] The amount of incorporated radioactive label was determined with ImageJ software. […]

For experiment [3], the system named is p27 phosphorylation at S83 and T187 in cardiomyocytes. Put plainly: p27 phosphorylation at S83 and T187 in Ang II-treated cardiomyocytes (Western blot). Type of experiment: cell-based, rat. As to conditions: Ang II 4 h; lentiviruses 72 h; DMAT 20 μM pre-incubated 30 min; TAT-conjugated CK2-alpha-prime 2.5 μg/ml 1 h. The protocol: FIG. 2 is a series of graphs and blots showing Ang II triggers CK2-alpha-prime-dependent phosphorylation of p27 on S83 and T187 in cardiomyocytes. (A) p27 is a substrate of CK2-alpha-prime. […] In vitro kinase assays employing recombinant wt.p27 (1 μg) or phosphorylation site mutants of p27 as substrates were incubated with recombinant CK2-alpha-prime/beta (200 ng). Aliquots of the reaction mixtures were resolved on SDS-PAGE, electrotransferred to nitrocellulose membranes, and the amount of incorporated radioactive [^32P}-label into p27 was quantified with a PhosphorImager and ImageJ software. Individual membranes were probed with anti-CK2-alpha-prime, anti-p27 (input), or phosphorylation site specific antibodies to p27. […] Samples were resolved on SDS-PAGE, transferred to nitrocellulose-membranes, and the amount of incorporated radioactive label into histones was quantified with a PhosphorImager and ImageJ. The input amount of each CK2-alpha-prime and p27 protein used in the kinase reaction mixtures was monitored by immunoblot analysis employing anti-His. […] Biochemically fractionated extracts corresponding to 4×10^5 cells per lane were analyzed by immunoblotting employing antibodies as indicated on the left. […]
(A western blot detects proteins with antibodies after separation by electrophoresis.)

Regarding “TAT-β-Gal: recombinant TAT-conjugated beta-galactosidase, control injections”, in experiment [1] (Ang II infusion 16 days (0.7 μg/kg per minute)), the Heart weight amounted to 159 ± 7.3 mg. In experiment [1] (Ang II infusion 16 days), the FS came out at 44 ± 1.6 %, the Heart weight/body weight stood at 6.9 ± 0.2 mg/g, the IVSD is 1.4 ± 0.1 mm and the LVEDD came to 3.8 ± 0.1 mm. In addition, in experiment [1] (Ang II infusion 16 days), the LVEF is reported as 78 ± 3.7 %, the LVESD is listed as 2.7 ± 0.2 mm and the PWD is 1.4 ± 0.1 mm.

For alpha-methylomuralide, in experiment [2], the p27 degradation result is on record as “inhibit p27 degradation”.

Consider `CC(C)C[C@H](NC(=O)[C@H](Cc1ccccc1)NC(=O)c1cnccn1)B(O)O` [PS-341], for which the p27 degradation result in experiment [2] is “inhibit p27 degradation”.

On to `CC(=O)N[C@@H](CSC(=O)[C@]1([C@@H](O)C(C)C)NC(=O)[C@H](C)[C@@H]1O)C(=O)O` [lactacystin], for which, in experiment [2], the “Ang II-triggered decrease in p27 protein levels / p27 destabilization” value is on record as “sensitive to proteasome inhibition”.

With `CN(C)c1nc2c(Br)c(Br)c(Br)c(Br)c2[nH]1` [DMAT, 2-dimethylamino-4,5,6,7-tetrabromo-1H-benzimidazol, reference compound], the “S83/T187 phosphorylation of p27 in cardiomyocytes” value in experiment [3] is “abolished”. The “Ang II-triggered decrease in p27 protein levels / p27 destabilization” value in experiment [2] is given as “prevented p27 destabilization”.
